In test [1] the target is T1, hCRTH2 receptor (Homo sapiens, UniProt Q9Y5Y4).
T1 construct: expressed in transfected cells
T1 sequence (Q9Y5Y4 1-395): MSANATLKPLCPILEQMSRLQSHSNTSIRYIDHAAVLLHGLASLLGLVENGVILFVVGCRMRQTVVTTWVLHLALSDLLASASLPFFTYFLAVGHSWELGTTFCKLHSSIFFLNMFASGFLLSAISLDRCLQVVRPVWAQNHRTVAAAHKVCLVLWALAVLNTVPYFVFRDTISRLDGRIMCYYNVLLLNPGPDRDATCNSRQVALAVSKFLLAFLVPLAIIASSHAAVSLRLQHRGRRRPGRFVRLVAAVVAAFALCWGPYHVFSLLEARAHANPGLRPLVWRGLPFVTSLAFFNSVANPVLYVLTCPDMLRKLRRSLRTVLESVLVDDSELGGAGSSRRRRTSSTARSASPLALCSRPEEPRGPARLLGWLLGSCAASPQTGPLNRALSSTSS
The experiment in a line: CRTH2 membranes radioligand binding assay ({3H}-PGD2), Example B-1. As to conditions: {3H}-PGD2 radioligand binding, read-out: CRTH2 binding IC50 (nM) (method B1 above). As for the experimental part:
The ability of the compounds of formula I, IC1, IC2 or IP to bind to the CRTH2 receptor may be measured by methods similar to those described in Sawyer N. et al., Br. J. Pharmacol. (2002), 137, 1163-1172 and by the method described below in Example B-1.
Preparation of the membranes and radioligand binding assays are performed according to known procedures, e.g. Sawyer N. et al. (Br. J. Pharmacol., 2002, 137, 1163-1172). A clonal HEK 293 cell line, expressing high level of recombinant hCRTH2 receptor, is selected for the preparation of membranes. Cells are detached from culture plates in 5 ml buffer A per plate (5 mM Tris, 1 mM MgCl2x6H2O, 0.1 mM PMSF, 0.1 mM phenanthroline) using a police rubber and transferred into centrifugation tubes and frozen at −80° C. After thawing, the cells are centrifuged at 500 g for 5 min and then resuspended in buffer A. Cells are then fragmented by homogenization with a Polytron homogenizer for 30 s. The membrane fragments are centrifuged at 3000 g for 40 min and resuspended in membranes in buffer B (50 mM Tris, 25 mM MgCl2, 250 mM saccharose, pH 7.4) and aliquots are stored frozen.
Binding assay is performed in a total volume of 250 μl. In each well, 75 μl buffer C (50 mM Tris, 100 mM NaCl, 1 mM EDTA, 0.1% BSA (protease free), 0.01% NaN3, pH 7.4) was mixed with 50 μl {^3H}-PGD2 (at 2.5 nM (220.000 dpm per well) from Amersham, TRK734), 100 μl CRTH2 membranes to give 80 μg per well and 25 μl of test compound in buffer C containing 1% DMSO. For unspecific binding, PGD2 is added to the reaction mixture at 1 μM final concentration. This binding assay mix is incubated at rt for 90 min and then filtered through a GF/C filter plate. The filter is washed three times with ice cold binding buffer. Then, 40 μl per well Microscint-40 (Packard) are added and the bound radioactivity is quantified by means of Topcount (Packard).

For test [2], the target named is T1, hCRTH2 receptor. In words: Intracellular calcium mobilization assay (FLIPR), Example B-2. Type of test: cell-based. Particulars: HEK-293 cells expressing hCRTH2; 10 nM prostaglandin D2 as agonist; read-out: CRTH2 FLIPR IC50 (nM) (method B2 above). As for the experimental part:
A functional assay with cells expressing the human CRTH2 receptor may be used to detect changes in the levels of intracellular calcium concentration following compound treatment. After addition of the compound the cells are challenged with PGD2. In a Fluorescent Imaging Plate Reader (FLIPR™, Molecular Devices, Sunnyvale, Calif.) fluorescence emission is recorded during both additions, emission peak values above base level after PGD2 addition were exported, normalized to low controls (no PGD2) and high controls (no active compound). The relative values of the remaining activity were used to determine IC50 values by curve fitting the data to a single site to a four-parameter logistic sigmoid dose response curve of the equation (A+((B−A)/(1+((C/x)^D)))).
The ability of the compounds to antagonize PGD2 induced change of intracellular calcium levels via CRTH2 activation may be measured by methods known of one skilled in the art or by the method described below in Example B-2.
Cells (HEK-293), stably expressing the hCRTH2 receptor under the control of the cytomegalovirus promotor from a single insertion of the expression vector pcDNA5 (Invitrogen), are grown to confluency in DMEM (low glucose, Gibco) medium supplemented with 10% fetal calf serum (both Bioconcept, Switzerland) under standard mammalian cell culture conditions (37° C. in a humidified atmosphere of 5% CO2). Cells are detached from culture dishes using a dissociation buffer (0.02% EDTA in PBS, Gibco) for 1 min, and collected by centrifugation at 200 g at rt for 5 min in assay buffer (equal parts of Hank's BSS (HBSS, Bioconcept) and DMEM (low glucose, without phenol red, Gibco)). After incubation for 45 min (37° C. and 5% CO2) in the presence of 1 μM Fluo-4 and 0.04% Pluronic F-127 (both Molecular Probes), 20 mM HEPES (Gibco) in assay buffer, the cells are washed with and resuspended in assay buffer, then seeded onto 384-well FLIPR assay plates (Greiner) at 50,000 cells in 66 μl per well), and sedimented by centrifugation.
Stock solutions of test compounds are made up at a concentration of 10 mM in DMSO, and serially diluted in assay buffer to concentrations required for inhibition dose response curves. Prostaglandin D2 (Biomol, Plymouth Meeting, Pa.) is used as an agonist.
A FLIPR384 instrument (Molecular Devices) is operated according to the manufacturer's standard instructions, adding 4 μl of test compound dissolved at 10 mM in DMSO and diluted prior to the experiment in assay buffer to obtain the desired final concentration. 10 μl of 80 nM prostaglandin D2 (Biomol, Plymouth Meeting, Pa.) in assay buffer, supplemented with 0.8% bovine serum albumin (fatty acid content<0.02%, Sigma), is then added to obtain a final concentration of 10 nM and 0.1%, respectively. Changes in fluorescence are monitored before and after the addition of test compounds at λex=488 nm and λem=540 nm. Emission peak values above base level after prostaglandin D2 addition are exported after base line subtraction. Values are normalized to high-level control (no test compound added) after subtraction of base line value (no prostaglandin D2 added). The program XLlfit 3.0 (IDBS) is used to fit the data to a single site dose response curve of the equation (A+((B−A)/(1+((C/x)^D)))) and to calculate the IC50 values.
A general note: Calcium flux is commonly read through the fluorescence of an indicator in the cells.

By IC50 is commonly meant the midpoint of a concentration-inhibition curve. On to `N#C/C(=C\c1cn(CC(=O)O)c2ccccc12)C(=O)N(Cc1ccccc1)c1ccccc1` [Example 12, {3-[(E)-2-(benzyl-phenyl-carbamoyl)-2-cyano-vinyl]-indol-1-yl}-acetic acid], for which the IC50 at hCRTH2 receptor [1] was found to be 29 nM; at hCRTH2 receptor [2], 90 nM.
As to `N#C/C(=C\c1cn(CC(=O)O)c2ccccc12)C(=O)Nc1ccccc1Cc1ccccc1` [Example 29, {3-[(E)-2-(2-benzyl-phenylcarbamoyl)-2-cyano-vinyl]-indol-1-yl}-acetic acid], the IC50 is 42 nM at hCRTH2 receptor [1] and 151 nM at hCRTH2 receptor [2].
With `COc1ccc(N(C)C(=O)/C(C#N)=C/c2cn(CC(=O)O)c3ccccc23)cc1` [Example 45, (3-{(E)-2-cyano-2-[(4-methoxy-phenyl)-methyl-carbamoyl]-vinyl}-indol-1-yl)-acetic acid], the IC50 was 7 nM on hCRTH2 receptor [1] and 48 nM on hCRTH2 receptor [2].
On to `CN(C(=O)/C(C#N)=C/c1cn(CC(=O)O)c2ccccc12)c1ccccc1` [Example 46, {3-[(E)-2-cyano-2-(methyl-phenyl-carbamoyl)-vinyl]-indol-1-yl}-acetic acid], for which the IC50 at hCRTH2 receptor [1] came to 11 nM; at hCRTH2 receptor [2], 61 nM.
With `N#C/C(=C\c1cn(CC(=O)O)c2ccccc12)C(=O)N1CCCc2ccccc21` [Example 47, {3-[(E)-2-cyano-3-(3,4-dihydro-2H-quinolin-1-yl)-3-oxo-propenyl]-indol-1-yl}-acetic acid], the IC50 came to 9 nM on hCRTH2 receptor [1] and 54 nM at hCRTH2 receptor [2].
With `N#C/C(=C\c1cn(CC(=O)O)c2ccccc12)C(=O)Nc1ccccc1Oc1ccc(Cl)cc1Cl` [Example 49, (3-{(E)-2-cyano-2-[2-(2,4-dichloro-phenoxy)-phenylcarbamoyl]-vinyl}-indol-1-yl)-acetic acid], the IC50 on hCRTH2 receptor [1] turned out to be 35 nM; on hCRTH2 receptor [2], 146 nM.
For `N#C/C(=C\c1cn(CC(=O)O)c2ccccc12)C(=O)Nc1cccc(C(=O)c2ccccc2)c1` [Example 54, {3-[(E)-2-(3-benzoyl-phenylcarbamoyl)-2-cyano-vinyl]-indol-1-yl}-acetic acid], the IC50 on hCRTH2 receptor [1] was 18 nM; on hCRTH2 receptor [2], 98 nM.
The corresponding values for `COc1ccc(Cl)cc1NC(=O)/C(C#N)=C/c1cn(CC(=O)O)c2ccccc12` [Example 64, {3-[(E)-2-(5-chloro-2-methoxy-phenylcarbamoyl)-2-cyano-vinyl]-indol-1-yl}-acetic acid] are 40 nM and 61 nM.
Regarding `Cc1ccc(NC(=O)/C(C#N)=C/c2cn(CC(=O)O)c3ccccc23)cc1Br` [Example 70, {3-[(E)-2-(3-bromo-4-methyl-phenylcarbamoyl)-2-cyano-vinyl]-indol-1-yl}-acetic acid], the IC50 at hCRTH2 receptor [1] is 76 nM; on hCRTH2 receptor [2] it was 58 nM.
Regarding `N#C/C(=C\c1cn(CC(=O)O)c2ccccc12)C(=O)N1c2ccccc2C=Cc2ccccc21` [Example 87, sodium [3-((E)-2-cyano-3-dibenzo[b,f]azepin-5-yl-3-oxo-propenyl)-indol-1-yl]-acetate], the IC50 came to 12 nM on hCRTH2 receptor [1] and 57 nM on hCRTH2 receptor [2].
On to `N#C/C(=C\c1cn(CC(=O)O)c2ccccc12)C(=O)N1Cc2ccccc2Cc2ccccc21` [Example 89, {3-[(E)-2-cyano-3-(6,11-dihydro-dibenzo[b,e]azepin-5-yl)-3-oxo-propenyl]-indol-1-yl}-acetic acid], for which the IC50 came to 6 nM at hCRTH2 receptor [1] and 114 nM at hCRTH2 receptor [2].
Regarding `CC(=O)c1ccc(N(C)C(=O)/C(C#N)=C/c2cn(CC(=O)O)c3ccccc23)cc1` [Example 94, (3-{(E)-2-[(4-acetyl-phenyl)-methyl-carbamoyl]-2-cyano-vinyl}-indol-1-yl)-acetic acid], the IC50 at hCRTH2 receptor [1] stood at 10 nM; on hCRTH2 receptor [2] it was 181 nM.
Take `N#C/C(=C\c1cn(CC(=O)O)c2ccccc12)C(=O)N(CC(=O)O)c1ccccc1` [Example 99, {3-[(E)-2-(carboxymethyl-phenyl-carbamoyl)-2-cyano-vinyl]-indol-1-yl}-acetic acid]: the IC50 amounted to 16 nM on hCRTH2 receptor [1] and 159 nM at hCRTH2 receptor [2].
With `CN(C(=O)/C(C#N)=C/c1cn(CC(=O)O)c2ccccc12)c1cccc(Cl)c1` [Example 101, (3-{(E)-2-[(3-chloro-phenyl)-methyl-carbamoyl]-2-cyano-vinyl}-indol-1-yl)-acetic acid], the values for the IC50 on hCRTH2 receptor [1] and on hCRTH2 receptor [2] were 15 nM and 182 nM, respectively.
Turning to `N#C/C(=C\c1cn(CC(=O)O)c2ccccc12)C(=O)N1c2ccccc2Sc2ccc(Cl)cc21` [Example 113, {3-[(E)-3-(2-chloro-phenothiazin-10-yl)-2-cyano-3-oxo-propenyl]-indol-1-yl}-acetic acid], the IC50 is 9 nM at hCRTH2 receptor [1] and 66 nM at hCRTH2 receptor [2].
`CN(C(=O)/C(C#N)=C/c1cn(CC(=O)O)c2ccc(F)cc12)c1ccccc1C(F)(F)F` [Example 141, (3-{(E)-2-cyano-2-[methyl-(2-trifluoromethyl-phenyl)-carbamoyl]-vinyl}-5-fluoro-indol-1-yl)-acetic acid]: the results for the IC50 on hCRTH2 receptor [1] and at hCRTH2 receptor [2] were 17 nM and 47 nM, respectively.
Consider `Cc1ccc2c(/C=C(\C#N)C(=O)N3Cc4ccccc4Cc4ccccc43)cn(CC(=O)O)c2c1` [Example 149, {3-[(E)-2-cyano-3-(6,11-dihydro-dibenzo[b,e]azepin-5-yl)-3-oxo-propenyl]-6-methyl-indol-1-yl}-acetic acid], for which the IC50 came out at 49 nM at hCRTH2 receptor [1] and 253 nM at hCRTH2 receptor [2].

Values taken from patent US7897788B2, “Indol-1-yl-acetic acid derivatives” (Actelion Pharmaceutical Ltd., priority 2004, dated 2011).
